Some results are limits rather than exact numbers.

Assay [1] concerns the target T1, Eg5 kinesin motor domains (Homo sapiens, UniProt P52732).
T1 construct: The ATPase activity of Eg5 kinesin motor domains (Cytoskeleton, cat. No. EG01); purchased Cytoskeleton EG01
T1 sequence (P52732 18-359 limits assumed): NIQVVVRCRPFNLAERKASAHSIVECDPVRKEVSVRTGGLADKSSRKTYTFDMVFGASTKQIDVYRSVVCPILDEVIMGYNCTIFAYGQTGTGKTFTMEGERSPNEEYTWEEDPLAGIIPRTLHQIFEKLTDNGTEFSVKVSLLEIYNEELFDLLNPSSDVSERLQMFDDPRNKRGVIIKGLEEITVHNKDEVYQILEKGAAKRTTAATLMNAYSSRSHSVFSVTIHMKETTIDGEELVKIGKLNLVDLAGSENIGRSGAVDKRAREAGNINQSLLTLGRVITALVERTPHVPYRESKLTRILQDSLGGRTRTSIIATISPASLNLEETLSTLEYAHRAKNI
Put plainly: Eg5 ATPase activity assay (Malachite green). Type of assay: biochemical. Conditions: 300 μM ATP, 250 nM microtubules, 30 min room temperature, read-out: Inhibition of Eg5 activity, −log IC50 [mol/l] (converted). How it is done: The ATPase activity of Eg5 kinesin motor domains (Cytoskeleton, cat. No. EG01) can be used to monitor the effects of modulating agents. The test compounds are dissolved as 10 mM solutions in dimethylsulfoxide (DMSO). 2 μl of appropriate DMSO dilutions of the test compounds are added to each well of a 96 well flat bottom plate. Each compound dilution is tested as triplicates. The reagents are added and the final reaction of the standard assay contains 15 mM Pipes, pH 6.8, 5.0 mM MgCl2, 0.5 mM KCl, 1 mM EGTA, 0.1 mg/ml BSA, 1 μM Paclitaxel, 250 nM preformed microtubules (Cytoskeleton, cat. No. MT001), 300 μM ATP, and Eg5 protein (50 ng) in a reaction volume of 100 μl. The controls include buffer wells with ATP and 2% DMSO. Reactions are started by the addition of ATP, incubated at room temperature for 30 min., and terminated by removing 20 μl of the reaction volume and adding it to 80 μl of 1 M perchloric acid, followed by the addition of 80 μl Malachite green reagent. […] The reactions are incubated for a further 20 min. and then read at 615 nm.
The corresponding IC50 values of the compounds for Eg5 inhibition are determined from the concentration-effect curves.
Representative inhibitory values [measured as −log IC50 (mol/l)] determined in the aforementioned assay follow from the following table A, in which the numbers of the compounds correspond to the numbers of the examples.

In assay [2] the test system is RKO p27 colon adenocarcinoma cells, uninduced (proliferating). Kind of assay: Alamar Blue cell viability assay, RKO p27 uninduced (proliferating). Type of assay: cell-based. Conditions: Homo sapiens, RKOp27; anti-proliferative/cytotoxic activity, 72 hours, without Ponasterone A; read-out: −log EC50 [mol/l] RKO p27 uninduced (proliferating) (converted). How it is done: The anti-proliferative/cytotoxic activity of the compounds described herein can be tested on subclones of RKO human colon adenocarcinoma cells (Schmidt et al., Oncogene 19, 2423-2429; 2000) using the Alamar Blue cell viability assay (described in O'Brien et al. Eur J Biochem 267, 5421-5426, 2000). The compounds are dissolved as 10 mM solutions in DMSO and subsequently diluted in semi-logarithmic steps. DMSO dilutions are further diluted 1:100 into Dulbecco's modified Eagle's medium (DMEM) containing 10% fetal calf serum to a final concentration twice as much as the final concentration in the test. […] To determine the viability of the cells, 10 μl of an Alamar Blue solution (Biosource) are added and the fluorescence is measured at an extinction of 544 nm and an emission of 590 nm. […] Viabilities are expressed as % values. […]
(§1) To determine the cell cycle specific mode of action, subclones of RKO colon adenocarcinoma cells (RKOp21 or RKOp27 as described by Schmidt et al. in Oncogene 19, 2423-2429; 2000) are seeded into 96 well flat bottom plates at a density of 16000 cells per well in a volume of 50 μl per well in DMEM growth medium with 10% FCS containing 10 μM Ponasterone A. 24 hours after seeding the 50 μl each of the compound dilutions in DMEM medium are added into each well of the 96-well plate. […] Viabilities are expressed as % values. […]
A general note: Resazurin is reduced to fluorescent resorufin, in cell work by metabolically active cells.

The subject of assay [3] is RKO p27 colon adenocarcinoma cells, induced (arrested). Kind of assay: Alamar Blue cell viability assay, RKO p27 induced (arrested) by Ponasterone A. Type of assay: cell-based. Conditions: Homo sapiens, RKOp27; anti-proliferative/cytotoxic activity, 72 hours, 10 μM Ponasterone A; read-out: −log EC50 [mol/l] RKO p27 induced (arrested) (converted). The method, then:
as §1, with “plate. Each compound dilution is tested as triplicates. Wells containing untreated control cells are filled with 50 μl DMEM medium containing 1% DMSO. The cells are then incubated with the substances for 72 hours at 37° C. in a humidified atmosphere containing 5% carbon dioxide. To determine the viability of the cells, 10 μl of an Alamar Blue solution (Biosource) are added and the fluorescence is measured at an extinction of 544 nm and an emission of 590 nm.” for “plate.”
Representative values for anti-proliferation/cytotoxicity [measured as −log EC50 (mol/l)] determined in the aforementioned assays follow from the following tables B1 and B2, in which the numbers of the compounds correspond to the numbers of the examples.

In assay [4] the test system is RKO p21 colon adenocarcinoma cells, uninduced (proliferating). Put plainly: Alamar Blue cell viability assay, RKO p21 uninduced (proliferating). The format is cell-based. Conditions: Homo sapiens; anti-proliferative/cytotoxic activity, 72 hours, without Ponasterone A; read-out: −log EC50 [mol/l] RKO p21 uninduced (proliferating) (converted). Summed up: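 Proliferating RKO subclones, no Ponasterone A inducer, seeded in DMEM/10% FCS and dosed after 24 h with semi-log dilutions in triplicate, 72 h at 37 °C, 5% CO2. Viability by Alamar Blue fluorescence (544/590 nm) vs untreated cells; EC50 from dose-response curves.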

On to `COc1ccc2[nH]c3c(c2c1)C[C@@]1(C)C(=O)N(CCN(C)C)C(=O)N1[C@@H]3c1ccccc1` (racemic) [Example 1, (3aSR,10RS)-2-(2-Dimethylamino-ethyl)-6-methoxy-3a-methyl-10-phenyl-3a,4,9,10-tetrahydro-2,9,10a-triaza-cyclopenta[b]fluorene-1,3-dione], for which the IC50 in assay [1] was 31.6 nM. The EC50 in assay [2] was 63.1 nM; in assay [3] it was not below 10000 nM.
`COc1ccc2[nH]c3c(c2c1)C[C@@]1(C)C(=O)N(CCN2CCCCC2)C(=O)N1[C@@H]3c1ccccc1` (racemic) [Example 32, (3aSR, 10RS)-6-Methoxy-3a-methyl-10-phenyl-2-(2-piperidin-1-yl-ethyl)-3a,4,9,10-tetrahydro-2,9,10a-triaza-cyclopenta[b]fluorene-1,3-dione]: the EC50 in assay [4] is not above 1000 nM.
As for `COc1ccc2[nH]c3c(c2c1)C[C@@]1(C)C(=O)N(CCCNC2CCC2)C(=O)N1[C@@H]3c1ccccc1` (racemic) [Example 72, (3aSR, 10RS)-2-(3-Cyclo-butylamino-propyl)-6-methoxy-3a-methyl-10-phenyl-3a,4,9,10-tetrahydro-2,9,10a-triaza-cyclopenta[b] fluorene-1,3-dione], the EC50 in assay [4] was not above 1000 nM.
`CC[C@@]12Cc3c([nH]c4ccc(OC)cc34)[C@@H](c3ccccc3)N1C(=O)N(CCCN(C)C)C2=O` (racemic) [Example 6, (3aSR,10RS)-2-(3-Dimethylamino-propyl)-3a-ethyl-6-methoxy-10-phenyl-3a,4,9,10-tetrahydro-2,9,10a-triaza-cyclopenta[b]fluorene-1,3-dione]: in assay [4], the EC50 is not above 1000 nM.

The record behind these values is patent publication US20090246169A1, “INDOLOPYRIDINES AS EG5 KINESIN MODULATORS” (priority 2006, published 2009).
